Assay [1] deals with Corynebacterium accolens. Put plainly: Antimicrobial activity against Corynebacterium accolens at 10 ug after 24 hr by disk diffusion method. The assay is classed as functional, organism-based. (Agar diffusion results depend on both activity and mobility in agar.)
The test system of assay [2] is Pectobacterium carotovorum. The experiment in a line: Antimicrobial activity against Pectobacterium carotovorum at 10 ug after 24 hr by disk diffusion method. The assay is classed as functional, organism-based.
Assay [3] relates to Staphylococcus aureus. The experiment in a line: Antimicrobial activity against Staphylococcus aureus at 10 ug after 24 hr by disk diffusion method. In kind it is functional, organism-based.
Assay [4] relates to Candida albicans. The experiment in a line: Antimicrobial activity against Candida albicans at 20 ug after 24 hr by disk diffusion method. The assay is classed as functional, organism-based.
Assay [5] deals with Staphylococcus aureus. The experiment in a line: Antimicrobial activity against Staphylococcus aureus at 100 ug after 24 hr by disk diffusion method. In kind it is functional. The note with it: read-out: DIZ.
Assay [6] relates to Pectobacterium carotovorum. Put plainly: Antimicrobial activity against Pectobacterium carotovorum at 100 ug after 24 hr by disk diffusion method. To be noted: read-out: DIZ. In kind it is functional.
Assay [7] relates to Candida albicans. Put plainly: Antimicrobial activity against Candida albicans at 100 ug after 24 hr by disk diffusion method. In kind it is functional. To be noted: read-out: DIZ.
Assay [8] in a line: Inhibition of xanthine oxidase assessed as conversion of xanthine to uric acid incubated for 3 min.
Assay [9] relates to Corynebacterium accolens. Put plainly: Antimicrobial activity against Corynebacterium accolens at 100 ug after 24 hr by disk diffusion method. The assay is classed as functional. The note with it: read-out: DIZ.

The results in this text go back to ChEMBL document CHEMBL3046377, “Bioactive ellagitannins from Cunonia macrophylla, an endemic Cunoniaceae from New Caledonia” (Phytochemistry, 2005).

Consider GENTAMICIN SULFATE, for which the inhibition zone (IZ) with Corynebacterium accolens [1] is 28 mm; in assay [2], 21 mm; in the assay on Staphylococcus aureus [3] it was 14 mm.
In the assay on Candida albicans [4], NYSTATIN showed an inhibition zone (IZ) of 11 mm.
The IC50 is the concentration needed to halve the response being measured. For `O=c1oc2c(O)c(O)cc3c(=O)oc4c(O)c(O)cc1c4c23` [ELLAGIC ACID], the zone of inhibition at 100 µg/disc in the assay with Staphylococcus aureus [5] worked out at 0 mm; in [6], 15 mm; in the assay with Candida albicans [7], 10 mm; in the assay with Corynebacterium accolens [9], 12 mm. In assay [8], the IC50 amounted to 9.3 µM.
With `O=c1c(O)c(-c2ccc(O)c(O)c2)oc2cc(O)cc(O)c12` [QUERCETIN], in assay [8], the IC50 stood at 10 µM.
Turning to `O=C(O)C[C@@H]1C(=O)O[C@H]2[C@@H]3OC(=O)c4cc(O)c(O)c(O)c4-c4c(cc(O)c(O)c4O)C(=O)OC[C@H]2O[C@@H](OC(=O)c2cc(O)c(O)c(O)c2)[C@@H]3OC(=O)c2cc(O)c(O)c3c2[C@H]1[C@H](O)C(=O)O3` [CHEBULAGIC ACID], the zone of inhibition at 100 µg/disc in the assay with Staphylococcus aureus [5] was found to be 11 mm; in assay [6], 19 mm; in the assay with Candida albicans [7], 12 mm; with Corynebacterium accolens [9] it was 10 mm. The IC50 in [8] worked out at 48 µM.
Regarding `O=C(O[C@@H]1O[C@@H]2COC(=O)c3cc(O)c(O)c(O)c3-c3c(cc(Oc4c(C(=O)O)cc(O)c(O)c4O)c(O)c3O)C(=O)O[C@H]([C@H]1O)[C@@H]2O)c1cc(O)c(O)c(O)c1` [MALLOTINIC ACID], the zone of inhibition at 100 µg/disc is 9 mm with Staphylococcus aureus [5], 13 mm in assay [6], 9 mm in the assay with Candida albicans [7] and 9 mm with Corynebacterium accolens [9]. The half-inhibitory concentration (IC50) in [8] is above 100 µM.
With `O=c1oc2c(O)c(O[C@@H]3OC[C@@H](O)[C@H](O)[C@H]3O)cc3c(=O)oc4c(O)c(O)cc1c4c23` [ELLAGIC ACID 4-O-XYLOPYRANOSIDE], the zone of inhibition at 100 µg/disc in the assay with Staphylococcus aureus [5] was 0 mm; in assay [6], 12 mm; in the assay on Candida albicans [7] it was 0 mm; with Corynebacterium accolens [9] it was 0 mm. Further, in assay [8], the IC50 was found to be 4.7 µM.
For the compound `O=C(O)c1cc(O)c(O)c(O)c1` [GALLIC ACID], the zone of inhibition at 100 µg/disc was 7 mm with Staphylococcus aureus [5], 13 mm in assay [6], 7 mm in the assay with Candida albicans [7] and 7 mm with Corynebacterium accolens [9]. The IC50 in [8] stood at 41.7 µM.
With `O=C(O[C@@H]1O[C@@H]2COC(=O)c3cc(O)c(O)c(O)c3-c3c(cc(O)c(O)c3O)C(=O)O[C@H]([C@H]1O)[C@@H]2O)c1cc(O)c(O)c(O)c1` [CORILAGIN], the zone of inhibition at 100 µg/disc in the assay on Staphylococcus aureus [5] was 12 mm; in assay [6] it was 20 mm; in the assay with Candida albicans [7], 12 mm; in the assay with Corynebacterium accolens [9], 12 mm. Further, the IC50 in assay [8] was above 100 µM.
Take `O=C(Oc1c(O)cc2c(c1O)-c1c(cc(O)c(O)c1O)C(=O)OC[C@H]1O[C@@H](OC(=O)c3cc(O)c(O)c(O)c3)[C@H](O)[C@@H](OC2=O)[C@@H]1O)c1cc(O)c(O)c(O)c1` [MALLOREPANIN]: the zone of inhibition at 100 µg/disc in the assay with Staphylococcus aureus [5] stood at 10 mm; in [6], 15 mm; in the assay on Candida albicans [7], 10 mm; in the assay on Corynebacterium accolens [9], 10 mm. Moreover, in [8], the IC50 was above 100 µM.
